From patent US20150359763A1, “USE OF 3-BROMOPYRUVATE AS A CONTRACEPTIVE” (Board of Regents of the Nevada System of Higher Education, …, priority 2013, published 2015)
Values joined by “and” are separate entries in the source; they are usually repeats but may differ in a detail not shown here. Equal values may be shown once. “Also recorded” adds a separate entry of the source. Read-outs that look alike come from different tables or passages of the source.

Columns and labels:
[1] = system: mouse cauda epididymal sperm; test: Mouse sperm motility in HTF with compound, measured by CASA; type: cell-based; conditions: for inhibition of sperm motility in vitro: HTF with 1 mM analog, 5 to 60 min; for development of sperm motility: incubated 30 min and 60 min
Description: Sperm motility requires energy, the sources of which include both glycolysis and mitochondrial activity. The effects of four glycolytic inhibitors (3-bromopyruvate, 2-deoxyglucose, lonidamin and oxythiamine) on sperm motility were evaluated. First mouse cauda epididymal sperm were collected into PBS, HTF (sperm-activating solution), HTF supplemented with 1 mM 3-Bromopyruvate, HTF containing 1 mM 2-Deoxyglucose, HTF with 0.5 mM Lonidamin and HTF with 1 MM Oxythiamine. Epididymal sperm can gain partial motility in PBS, but will never develop hyperactivated motility, which is required for sperm to be competent to fertilize eggs. On the other hand, when epididymal sperm are incubated in human tubular fluid (HTF) medium, which contains all of the sperm motility-activating factors, sperm will quickly develop hyperactivated motility and the motility peaks within 30 minutes and can last at least for several hours at 37° C. In the present studies, mouse cauda epididymal sperm were incubated in PBS, HTF and HTF supplemented with the 4 compounds for 30 min and 60 min. Sperm motility was then measured by Computer-Assisted Sperm Analysis (CASA). […] These studies indicate that in the presence of 3BP (at 1 mM), sperm cannot develop motility.
To determine how quickly 3BP could immobilize sperm, mouse cauda epididymal sperm were collected into HTF and HTF supplemented with 1 mM 3BP, respectively. Sperm were then incubated at 37° C. for 5, 10, 20 30, 40 and 60 min, respectively. Sperm motility was completely lost within 10 minutes at 1 mM concentration and the inhibitory effect appeared to be permanent (see FIG. 3).
Given that 3BP could immobilize sperm, it was determined if analogs of 3BP could have the same effect. Four 3BP analogs, including methyl-pyruvate, ethyl-pyruvate, isoamyl-pyruvate and propyl-pyruvate, were tested to determine if they also had the inhibitory effect on sperm in vitro. In the first study, the effects of methyl-pyruvate and ethyl-pyruvate on sperm motility were evaluated (FIG. 4A). Mouse epididymal sperm were collected into HTF (control), HTF containing 1 mM Methyl-pyruvate and HTF with 1 mM ethyl-pyruvate, respectively. After incubation at 37° C. for 5, 10, 20, 30, 40 and 60 min, sperm motility was measured using CASA.

[2] = system: mouse cauda epididymal sperm; test: Permanence of sperm immobilization: exposure in PBS, wash, activation in HTF, CASA; type: cell-based; conditions: for motility development after short exposure and washout / motility developed in HTF after exposure and washing: 37° C.; for motility development after short exposure and washout: 5 min, washed, HTF 30 and 60 minutes; for motility developed in HTF after exposure and washing: PBS with 1 mM 3-BrPA, 1-30 min, washed twice, HTF 30 min and 60 min
Description: Studies were then performed to determine if sperm-immobilizing effects of 3BP were permanent or transient. Mouse cauda epididymal sperm were collected into PBS (control), PBS containing 1 mM 3BP, PBS containing 1 mM deoxyglucose, PBS with 0.5 mM lonidamine and PBS with 1 mM oxythiamine, followed by incubation at 37° C. for 5 min. The compounds were then washed away with PBS and then the treated sperm were incubated in HTF medium for 30 minutes and 60 minutes, followed by measurement of sperm motility by CASA. […] Again, 3BP had the strongest effects. […] These studies indicate that the sperm motility-abolishing effect of 3BP was permanent. Further, once exposed, sperm will never be able to develop motility.
To determine if sperm exposed to 3BP could still be activated in HTF, mouse sperm from the cauda epididymis were collected into PBS (control) and PBS containing 1 mM 3-BrPA, respectively. Then sperm were incubated in 37° C. for 1, 5, 10, 20 and 30 min, respectively. To remove 3BP, the sperm were washed twice with PBS. The sperm were then transferred to the HTF medium and activated for 30 min (FIG. 5, A) and 60 min (FIG. 5, B), followed by measurement the sperm motility using CASA.

[3] = system: human "swim-up" sperm; test: Motility of human swim-up sperm exposed to 3BP, CASA; type: cell-based; conditions: 1 mM 3BP
Description: In normal men in their reproductive ages, ˜30-40% of sperm in human ejaculates are immotile or display weak motility. A ‘swim-up” procedure allows motile sperm to be enriched. To see the potential of 3BP in suppressing sperm motility, the swim-up procedure was first performed to allow the collection of motile sperm and then the motile human sperm were exposed to 3BP to determine if their motility could be abolished. The human semen was left at room temperature for 30 minutes for liquidification and then 2˜3 ml pre-warmed HTF medium were added followed by centrifugation at 1,500 rpm for 5 min. The sperm pellets were resuspended in 1 ml pre-warmed HTF medium and then incubated at 37° C. in anincubator for 60 min. Motile sperm will “swim up” and stay in the upper portion of the medium, in which motile sperm are enriched in. The “swim-up” sperm were collected, 3BP added at a concentration of 1 mM, and the sperm were incubated for 1, 5, 10, 20 and 30 min at 37° C., respectively. Sperm motility was then measured using CASA (FIG. 6).

[4] = system: human semen; test: Sperm motility in liquidified human semen with 3BP; type: cell-based; conditions: 1 mM 3BP added directly to liquidified semen, 37° C.
Description: To evaluate the effect of 3BP on sperm motility in human semen, human semen was liquidified under room temperature and 3BP was directly added into the liquidified semen at a concentration of 1 mM followed by incubation at 37° C. for 1, 5, 10, 20 and 30 minutes (FIGS. 7 and 8). These studies indicate that 3BP can completely abolish human sperm motility within 5 minutes of contact.

[5] = system: mouse epididymal sperm; test: EC50 and EC100 for immobilizing mouse sperm within 20 seconds of contact, CASA; type: cell-based
Description: (§1) To determine at what concentrations 3BP can block the motility of 50% and 100% of the total motile sperm, mouse epididymal sperm were collected into PBS (pH 7.5) and then transferred to pre-warmed (37° C.) HTF medium containing serial dilutions of 3BP (pH 7.5) at concentrations ranging from 10 to 130 mM with a 10 mM increment. Motility was measured using CASA upon 20 seconds of contact with 3BP. […] Therefore, the 3BP EC50 is ˜40˜50 mM and EC100 is ˜100 mM for mouse epididymal sperm at pH 7.5 (FIG. 9). Similarly, the EC50 and EC100 of 3BP in immobilizing human sperm were determined. Human “swim-up” sperm were added to HTF containing 3BP at increasing concentrations ranging from 100 mM to 210 mM at pH 7.5. Sperm motility was measured upon 20 seconds of contact using CASA. […] However, the vaginal environment tends to be acidic (˜pH 5.0) and the effectiveness of 3BP in immobilizing sperm was further evaluated when pH was set at ˜5.0 (FIGS. 10 and 12).

[6] = system: human "swim-up" sperm; test: EC50 and EC100 for immobilizing human sperm within 20 seconds of contact, CASA; type: cell-based; conditions: for EC50: read-out: EC50 (50% of motile sperm immobilized within 20 seconds of contact)
Description: as §1

[7] = system: sperm ATP production; test: Sperm ATP content, Luciferase Bioluminescence Assay kit; type: cell-based; conditions: 1 mM 3BP, during 60 min activation by HTF
Description: The ATP production in sperm was measured with or without exposure to 1 mM 3BP during 60 min activation by HTF. Sperm ATP contents were measured using a Luciferase Bioluminescence Assay kit (FIG. 13). […] However, such a drastic suppression cannot be explained solely by its anti-glycolytic property because glycolysis provides only partial energy sperm motility requires.

[8] = system: sperm mitochondrial membrane potential; test: Sperm mitochondrial membrane potential, JC-1 assays; type: cell-based; conditions: 3BP 1 mM
Description: (§2) Whether 3BP could block mitochondrial activity in sperm was further examined because mitochondria also contribute energy production in sperm (FIG. 14). […] In control sperm trajectory tracking assays, the cauda epididymal sperm were collected into the HTF medium and incubated for 1, 5, 10 and 20 min (FIG. 15). In 3BP-treated sperm trajectory tracking assays, the cauda epididymal sperm were collected HTF+1 mM 3-BrPA and incubated for 1, 5, 10 and 20 min (FIG. 15). In control human sperm trajectory tracking assays, the human “swim-up” sperm were incubated HTF for 1, 5, 10, and 20 minutes (FIG. 16). In 3BP-treated human sperm movie clips, the human “swim-up” sperm were incubated in HTF+1 mM 3-BrPA for 1, 5, 10 and 20 minutes (FIG. 16). Further, the histology of the vagina and uterus in female mice that received daily intravaginal application of 3BP (200-400 ul lubricant containing 20 mM 3BP) for 3 months was accessed.

[9] = system: vagina and uterus in female mice; test: Histology of vagina and uterus after daily intravaginal application; type: in vivo; conditions: daily intravaginal 200-400 ul lubricant containing 20 mM 3BP, 3 months
Description: as §2

[10] = system: mouse cauda epididymal sperm; test: Mouse sperm motility in HTF with compound, measured by CASA; type: cell-based; conditions: 1 mM 3BP, activated mouse sperm (HTF 30 minutes, 37° C.)

## CCOC(=O)C(C)=O [ethyl-pyruvate]
[1]; 37° C.
  inhibition of sperm motility in vitro: None of the treatments resulted in inhibition of sperm motility
[1]; 37° C., listed as ethyl pyruvate
  inhibition of sperm motility in vitro: no effect on sperm motility

## O=C(O)c1nn(Cc2ccc(Cl)cc2Cl)c2ccccc12 [lonidamin, reference compound]
[1]; HTF with 0.5 mM Lonidamin
  development of sperm motility: appeared to inhibit the development of sperm motility
[2]; PBS with 0.5 mM lonidamine
  motility development after short exposure and washout: will permanently impair motility development

## CCCOC(=O)C(C)=O [propyl-pyruvate]
[1]; 37° C.
  inhibition of sperm motility in vitro: no effect on sperm motility

## Cc1ncc(C[n+]2csc(CCO)c2C)c(=O)[nH]1 [oxythiamine, reference compound]
[1]; HTF with 1 mM compound
  development of sperm motility: appeared to inhibit the development of sperm motility
[2]; PBS with 1 mM compound
  motility development after short exposure and washout: will permanently impair motility development

## O=CC[C@@H](O)[C@H](O)[C@H](O)CO [2-deoxyglucose, reference compound]
[1]; HTF with 1 mM compound
  development of sperm motility: appeared to inhibit the development of sperm motility
[2]; PBS with 1 mM compound
  motility development after short exposure and washout: will permanently impair motility development

## CC(=O)C(=O)OCCC(C)C [isoamyl-pyruvate]
[1]; 37° C.
  inhibition of sperm motility in vitro: no effect on sperm motility

## O=C(O)C(=O)CBr [3BP, 3-bromo-2-oxopropanoic acid]
[1]; HTF with 1 mM 3BP, 37° C.
  time to complete loss of sperm motility: ≤ 10 min
[1]; HTF with 1 mM compound
  development of sperm motility: almost completely blocked the development of sperm motility
[2]; 1 mM 3BP, murine non-activated sperm collected from the epididymis into physiological saline
  exposure time to permanent immobilization with complete loss of motility: less than 1 minute
[2]
  motility developed in HTF after exposure and washing: irreversible
[2]; listed as 3-BrPA
  motility developed in HTF after exposure and washing: No motility was developed
[2]; PBS with 1 mM compound
  motility development after short exposure and washout: permanent; also recorded: could not develop motility
[3]; 37° C., swim-up sperm in HTF
  time to abolish motility of motile human sperm: 1 to 5 min
[3]; activated human sperm (HTF 30 minutes, 37° C.)
  exposure time to permanent immobilization with complete loss of motility: less than 1 minute
[4]
  time to completely abolish human sperm motility: ≤ 5 min
[5]; pH 4.8
  EC100 (100% of motile sperm immobilized within 20 seconds of contact): ~17 mM
[5]; pH 4.8, read-out: EC50 (50% of motile sperm immobilized within 20 seconds of contact)
  EC50: ~5 mM
[5]; pH 7.5
  EC100 (100% of motile sperm immobilized within 20 seconds of contact): ~100 mM
[5]; pH 7.5, read-out: EC50 (50% of motile sperm immobilized within 20 seconds of contact)
  EC50: 40 to 50 mM
[6]; Homo sapiens, Sperm, pH 5, human sperm, pH 5.0
  EC50: 14 mM
[6]; human sperm, pH 5.0
  EC100 (100% of motile sperm immobilized within 20 seconds of contact): 23 mM and ~24 mM
  EC50: ~13 mM
[6]; human sperm, pH 7.5
  EC100 (100% of motile sperm immobilized within 20 seconds of contact): ~200 mM
[7]
  sperm ATP production: can effectively block sperm ATP production
[8]
  sperm mitochondrial membrane potential: inhibition of sperm mitochondrial membrane potential; also recorded: could inhibit the mitochondrial membrane potential
[9]
  histology of the vagina and uterus: no significant changes in the histology; also recorded: No discernible pathological changes were observed
[10]
  exposure time to permanent immobilization with complete loss of motility: less than 1 minute
